Tests used:
Assay in all cases: Eurofins kinase panel
Assay type in all cases: biochemical
Conditions in all cases: read-out: Inhibition rate (%)
MKK6(h) = biological target: T1, MKK6(h) (Homo sapiens, UniProt P52564)
T1 construct: purchased Eurofins (KinaseProfiler)
T1 sequence (P52564 1-334): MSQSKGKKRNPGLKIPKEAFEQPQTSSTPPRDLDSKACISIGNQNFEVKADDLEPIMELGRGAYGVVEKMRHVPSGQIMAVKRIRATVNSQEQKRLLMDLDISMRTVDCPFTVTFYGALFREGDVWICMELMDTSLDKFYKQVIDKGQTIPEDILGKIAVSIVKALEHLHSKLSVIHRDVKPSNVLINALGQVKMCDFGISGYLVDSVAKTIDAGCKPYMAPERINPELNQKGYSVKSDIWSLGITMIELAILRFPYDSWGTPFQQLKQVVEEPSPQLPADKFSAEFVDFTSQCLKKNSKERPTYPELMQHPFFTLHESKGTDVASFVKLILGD

TTK(h) = biological target: T2, TTK(h) (Homo sapiens, UniProt P33981)
T2 construct: purchased Eurofins (KinaseProfiler)
T2 sequence (P33981 1-857): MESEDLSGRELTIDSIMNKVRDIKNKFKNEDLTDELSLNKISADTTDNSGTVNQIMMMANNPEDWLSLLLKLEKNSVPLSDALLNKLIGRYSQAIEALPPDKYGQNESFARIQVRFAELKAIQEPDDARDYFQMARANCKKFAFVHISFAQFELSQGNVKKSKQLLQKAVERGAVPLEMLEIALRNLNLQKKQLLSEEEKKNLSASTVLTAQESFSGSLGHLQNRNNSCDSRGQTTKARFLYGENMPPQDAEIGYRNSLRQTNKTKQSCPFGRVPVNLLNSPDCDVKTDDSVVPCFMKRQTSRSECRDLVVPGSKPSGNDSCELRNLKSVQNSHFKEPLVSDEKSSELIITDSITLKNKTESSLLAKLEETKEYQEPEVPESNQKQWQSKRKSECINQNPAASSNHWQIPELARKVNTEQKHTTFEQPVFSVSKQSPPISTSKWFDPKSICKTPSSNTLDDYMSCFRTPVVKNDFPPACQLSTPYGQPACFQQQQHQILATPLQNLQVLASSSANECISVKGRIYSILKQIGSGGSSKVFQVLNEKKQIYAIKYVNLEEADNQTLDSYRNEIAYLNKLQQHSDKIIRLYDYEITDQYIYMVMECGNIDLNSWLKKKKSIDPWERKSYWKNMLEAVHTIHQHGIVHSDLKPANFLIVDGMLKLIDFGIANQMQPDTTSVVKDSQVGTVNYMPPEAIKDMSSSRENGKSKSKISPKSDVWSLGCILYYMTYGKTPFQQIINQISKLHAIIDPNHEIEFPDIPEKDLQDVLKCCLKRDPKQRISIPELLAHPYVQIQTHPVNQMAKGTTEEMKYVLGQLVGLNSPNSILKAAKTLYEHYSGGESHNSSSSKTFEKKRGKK

PKD3(h) = biological target: T3, PKD3(h) (Homo sapiens, UniProt O94806)
T3 construct: purchased Eurofins (KinaseProfiler)
T3 sequence (O94806 1-890): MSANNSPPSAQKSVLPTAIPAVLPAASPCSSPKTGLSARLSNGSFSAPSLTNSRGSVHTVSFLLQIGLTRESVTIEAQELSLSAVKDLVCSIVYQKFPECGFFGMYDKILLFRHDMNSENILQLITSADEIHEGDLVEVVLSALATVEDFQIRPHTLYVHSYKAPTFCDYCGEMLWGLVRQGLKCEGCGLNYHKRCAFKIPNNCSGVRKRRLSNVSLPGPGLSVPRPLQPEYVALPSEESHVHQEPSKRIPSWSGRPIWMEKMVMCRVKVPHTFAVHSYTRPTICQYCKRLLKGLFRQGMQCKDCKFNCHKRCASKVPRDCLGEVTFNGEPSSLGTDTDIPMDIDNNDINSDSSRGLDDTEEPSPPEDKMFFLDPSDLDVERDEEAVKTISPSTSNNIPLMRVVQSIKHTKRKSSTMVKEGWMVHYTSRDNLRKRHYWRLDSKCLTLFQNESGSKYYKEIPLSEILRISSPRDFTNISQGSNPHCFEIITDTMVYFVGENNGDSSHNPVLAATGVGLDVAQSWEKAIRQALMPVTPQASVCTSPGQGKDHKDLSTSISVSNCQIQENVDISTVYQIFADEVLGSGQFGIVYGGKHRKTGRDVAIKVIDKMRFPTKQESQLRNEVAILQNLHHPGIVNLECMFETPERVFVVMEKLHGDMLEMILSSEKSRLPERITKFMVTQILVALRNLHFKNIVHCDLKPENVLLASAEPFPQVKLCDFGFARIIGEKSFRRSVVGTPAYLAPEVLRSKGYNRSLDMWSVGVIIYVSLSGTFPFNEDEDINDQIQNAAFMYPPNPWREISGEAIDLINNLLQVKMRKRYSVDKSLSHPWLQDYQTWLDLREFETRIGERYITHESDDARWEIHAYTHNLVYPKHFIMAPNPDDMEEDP

DYRK1A(h) = biological target: T4, DYRK1A(h) (Homo sapiens, UniProt Q13627)
T4 construct: purchased Eurofins (KinaseProfiler)

ACTR2(h) = biological target: T5, ACTR2(h) (Homo sapiens, UniProt P27037)
T5 construct: purchased Eurofins (KinaseProfiler)

cKit(D816H)(h) = biological target: T6, cKit(D816H)(h) (Homo sapiens, UniProt P10721, D816H)
T6 construct: purchased Eurofins (KinaseProfiler)
T6 sequence (P10721 26-976 D816H): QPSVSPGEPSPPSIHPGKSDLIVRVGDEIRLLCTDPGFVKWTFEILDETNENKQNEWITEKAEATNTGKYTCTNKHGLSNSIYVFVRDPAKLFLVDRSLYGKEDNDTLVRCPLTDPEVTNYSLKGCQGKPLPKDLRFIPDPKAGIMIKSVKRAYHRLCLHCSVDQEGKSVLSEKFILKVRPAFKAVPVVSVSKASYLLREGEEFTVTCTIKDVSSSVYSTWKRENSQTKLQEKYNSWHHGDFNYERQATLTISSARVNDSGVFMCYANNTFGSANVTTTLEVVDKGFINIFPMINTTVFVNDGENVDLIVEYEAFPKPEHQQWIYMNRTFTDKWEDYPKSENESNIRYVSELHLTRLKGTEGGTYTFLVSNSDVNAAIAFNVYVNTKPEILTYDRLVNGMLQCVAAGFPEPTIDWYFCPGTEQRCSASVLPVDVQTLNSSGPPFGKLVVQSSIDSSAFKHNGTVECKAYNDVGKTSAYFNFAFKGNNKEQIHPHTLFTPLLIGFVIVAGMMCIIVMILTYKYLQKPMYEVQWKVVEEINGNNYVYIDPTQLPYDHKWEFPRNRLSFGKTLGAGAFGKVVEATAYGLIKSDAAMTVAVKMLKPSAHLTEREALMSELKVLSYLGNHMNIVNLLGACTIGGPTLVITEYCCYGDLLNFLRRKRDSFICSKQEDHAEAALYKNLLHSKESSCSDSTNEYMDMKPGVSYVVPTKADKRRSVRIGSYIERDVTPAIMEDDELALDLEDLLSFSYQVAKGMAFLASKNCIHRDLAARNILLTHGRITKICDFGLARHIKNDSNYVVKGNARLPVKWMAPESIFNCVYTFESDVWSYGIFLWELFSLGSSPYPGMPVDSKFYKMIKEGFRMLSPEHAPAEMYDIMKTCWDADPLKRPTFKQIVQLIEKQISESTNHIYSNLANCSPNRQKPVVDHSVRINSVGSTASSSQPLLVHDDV

T5 sequence (P27037 20-513): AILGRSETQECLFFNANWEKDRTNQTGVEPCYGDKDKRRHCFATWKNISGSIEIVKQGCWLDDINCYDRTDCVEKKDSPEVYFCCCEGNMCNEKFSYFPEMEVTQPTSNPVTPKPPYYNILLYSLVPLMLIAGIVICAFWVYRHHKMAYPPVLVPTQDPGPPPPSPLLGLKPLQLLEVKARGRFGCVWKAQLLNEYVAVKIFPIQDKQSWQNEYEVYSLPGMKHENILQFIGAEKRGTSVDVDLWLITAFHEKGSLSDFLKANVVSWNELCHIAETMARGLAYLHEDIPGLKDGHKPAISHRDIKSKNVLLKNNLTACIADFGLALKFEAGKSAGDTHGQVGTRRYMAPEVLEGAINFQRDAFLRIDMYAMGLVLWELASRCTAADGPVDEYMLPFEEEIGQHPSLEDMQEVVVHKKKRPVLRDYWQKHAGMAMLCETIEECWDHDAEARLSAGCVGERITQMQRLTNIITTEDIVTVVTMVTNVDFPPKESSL

Structure (SMILES): COc1cc(OC)c(Cl)c(-c2ccc3c(NC(=O)c4ccc(N5CCNC(C)(C)C5)cc4)n[nH]c3n2)c1Cl [3D185]
- inhibition at 0.01 µM (MKK6(h); 10 nM): 11%
- inhibition at 0.1 µM (MKK6(h); 100 nM): 0%
- inhibition at 1 µM (MKK6(h); 1000 nM): 2%
- inhibition at 0.01 µM (TTK(h); 10 nM): 5%
- inhibition at 0.1 µM (TTK(h); 100 nM): -2%
- inhibition at 1 µM (TTK(h); 1000 nM): 12%
- inhibition at 0.01 µM (PKD3(h); 10 nM): -3%
- inhibition at 0.1 µM (PKD3(h); 100 nM): -2%
- inhibition at 1 µM (PKD3(h); 1000 nM): 11%
- inhibition at 0.01 µM (DYRK1A(h); 10 nM): -4%
- inhibition at 0.1 µM (DYRK1A(h); 100 nM): 1%
- inhibition at 1 µM (DYRK1A(h); 1000 nM): 5%
- inhibition at 0.01 µM (ACTR2(h); 10 nM): 0%
- inhibition at 0.1 µM (ACTR2(h); 100 nM): -1%
- inhibition at 1 µM (ACTR2(h); 1000 nM): 1%
- inhibition at 0.01 µM (cKit(D816H)(h); 10 nM): 22%
- inhibition at 0.1 µM (cKit(D816H)(h); 100 nM): 27%
- inhibition at 1 µM (cKit(D816H)(h); 1000 nM): 44%

Reference: PMC6704710, “Preclinical evaluation of 3D185, a novel potent inhibitor of FGFR1/2/3 and CSF-1R, in FGFR-dependent and macrophage-dominant cancer models” (Journal of Experimental & Clinical Cancer Research : CR, 2019)
